Patent publication US6211215A, “Heterocyclic compounds, their production and use” (Takeda Chemical Industries, Ltd., priority 1996, dated 2001)

Tests used:
MDA-MB-453 = test: In vitro inhibition of cell proliferation (1); format: cell-based; conditions: Homo sapiens, 72 h; Breast cancer MDA-MB-453; 3 days; SRB
Method: 100 μl (containing 2,000 cells) of a cell suspension of human breast cancer cell line MDA-MB-453 was seeded in each well of the 96-well microtiter plates. The cultures were incubated at 37° C. in a 5% carbon dioxide gas incubator. On the next day, 100 μl of the 2-fold serial dilution of each compound solution was added to each well and the mixtures were cultured for 3 days. The solution containing the compound was removed and the cells were washed with water. To the cells was added a 0.4% (W/V) dye SRB (dissolved in 1% acetic acid) solution to fix and stain the cell protein (Skehan P. et al., Journal of the National Cancer Institute Vol.82, pp.1107-1112, 1990). The dye solution was removed and the fixed and stained cell protein was washed. The protein-bound dye was extracted with 200 μl of 10 mM Tris buffer. The optical density of the extracted dye was determined at the wavelength of 540 nm to estimate the quantity of the cells in terms of the protein quantity. Designating the protein quantity in the control to which no compound solution was added as 100%, the proportion of the residual protein quantity in each treated group was calculated, and IC50, which was concentration of the compound required to inhibit the residual protein quantity to 50% the quantity of the control, was calculated.

[1] = tested on: human breast cancer cell line, MDA-MB-453; test: In vivo mammary cancer inhibiting effect (1); design: species or system female Balb/C strain athymic nude mice; conditions: for Tumor growth rate (%): oral, tumor volume vs control
Method: 5,000,000 cells of human breast cancer cell line, MDA-MB-453, were suspended in a gelmatrix solution. The suspension was subcutaneously implanted at the breast in 7-week-old female Balb/C strain athymic nude mice (Friedman R. et al., Proceedings of the National Academy of Sciences of the U.S.A. Vol. 87, pp.6698-6702, 1990). Twelve days after the implantation, the diameters of tumors were determined. For the experiment were used 5 mice per group with similar tumor size. Compound 8 of the present invention was suspended in a 5% gum arabic solution (physiologicalsaline) and administered orally twice daily in dose of 30 mg/kg body weight for 10 days, or 2 cycle oral administrations consisting of 45 mg/kg body weight twice daily for 3 days and no treatment for 3 days were performed. On the day when the dosing was ended, the diameters of tumors were measured. Tumor volume was calculated by the following formula: volume of tumor=longest diameter×shortest diameter×shortest diameter×1/2. The growth rate of tumors was obtained as the proportion to the volume of tumor in the control animals in which only the gum arabic solution was administered. The body weights of mice administered with Compound 8 of the present invention were measured during the experiment to observe no decrease.

[2] = Body weights of mice during the in vivo tumor experiments; design: species or system Balb/C strain athymic nude mice
Method: 5,000,000 cells of human breast cancer cell line, MDA-MB-453, were suspended in a gelmatrix solution. The suspension was subcutaneously implanted at the breast in 7-week-old female Balb/C strain athymic nude mice (Friedman R. et al., Proceedings of the National Academy of Sciences of the U.S.A. Vol. 87, pp.6698-6702, 1990). Twelve days after the implantation, the diameters of tumors were determined. For the experiment were used 5 mice per group with similar tumor size. […] On the day when the dosing was ended, the diameters of tumors were measured. Tumor volume was calculated by the following formula: volume of tumor=longest diameter×shortest diameter×shortest diameter×1/2. […] The body weights of mice administered with Compound 8 of the present invention were measured during the experiment to observe no decrease.
5,000,000 cells of human breast cancer cell line, MDA-MB-453, were suspended in a gelmatrix solution. […] Twelve days after the implantation, the diameters of tumors were determined. […] On the day when the dosing was ended, the diameters of tumors were measured. Tumor volume was calculated by the following formula: volume of tumor=longest diameter×shortest diameter×shortest diameter×1/2. […] The body weights of mice administered with compounds of the present invention were measured during the experiment to observe no decrease. […]

HER2 = HER2 (Homo sapiens, UniProt P04626); test: Inhibition of phosphorylation of receptor tyrosine in human breast cancer cells (2), MCF-7, heregulin-stimulated; format: cell-based; design: Human breast cancer cell line MCF-7 was used; endogenous in cells; host or cells: MCF-7; conditions: heregulin control = 100%, read-out: Phosphorylation of receptor tyrosine residue (%)
Chain of HER2 (P04626 23-1255): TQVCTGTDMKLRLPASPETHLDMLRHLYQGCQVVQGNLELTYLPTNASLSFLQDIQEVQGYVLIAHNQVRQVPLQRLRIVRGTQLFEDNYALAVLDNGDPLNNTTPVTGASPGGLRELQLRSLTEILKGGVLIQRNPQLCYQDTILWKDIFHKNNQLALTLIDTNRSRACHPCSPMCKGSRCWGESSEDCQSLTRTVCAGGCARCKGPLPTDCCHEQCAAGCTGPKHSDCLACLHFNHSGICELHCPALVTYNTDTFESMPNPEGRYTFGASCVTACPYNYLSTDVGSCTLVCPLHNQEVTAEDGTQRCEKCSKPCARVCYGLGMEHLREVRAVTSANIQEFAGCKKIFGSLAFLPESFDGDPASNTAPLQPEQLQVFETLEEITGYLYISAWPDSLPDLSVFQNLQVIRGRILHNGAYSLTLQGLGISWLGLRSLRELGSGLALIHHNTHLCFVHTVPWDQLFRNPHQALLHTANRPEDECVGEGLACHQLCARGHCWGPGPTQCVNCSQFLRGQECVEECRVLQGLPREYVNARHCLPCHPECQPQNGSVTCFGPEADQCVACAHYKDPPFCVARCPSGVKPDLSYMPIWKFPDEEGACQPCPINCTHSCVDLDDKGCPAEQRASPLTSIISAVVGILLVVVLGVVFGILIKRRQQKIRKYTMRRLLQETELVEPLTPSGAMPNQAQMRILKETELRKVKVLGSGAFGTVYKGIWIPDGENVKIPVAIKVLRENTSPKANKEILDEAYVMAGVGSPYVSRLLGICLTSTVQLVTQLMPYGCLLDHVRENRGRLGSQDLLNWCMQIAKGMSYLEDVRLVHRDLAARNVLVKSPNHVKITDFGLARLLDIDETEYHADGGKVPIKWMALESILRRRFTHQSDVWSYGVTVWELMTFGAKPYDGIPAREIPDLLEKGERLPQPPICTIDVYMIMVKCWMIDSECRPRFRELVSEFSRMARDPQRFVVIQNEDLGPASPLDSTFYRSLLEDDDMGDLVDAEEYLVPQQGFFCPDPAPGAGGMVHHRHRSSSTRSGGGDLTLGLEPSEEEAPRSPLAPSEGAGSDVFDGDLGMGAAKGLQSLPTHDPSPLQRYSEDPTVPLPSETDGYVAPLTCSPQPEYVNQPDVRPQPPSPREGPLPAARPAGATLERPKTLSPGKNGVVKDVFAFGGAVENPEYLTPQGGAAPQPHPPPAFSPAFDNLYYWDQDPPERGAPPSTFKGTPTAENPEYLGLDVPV
Method: Human breast cancer cell line MCF-7 was used. 1,000 μl of the cell suspension (250,000 cells) was seeded in each well of the 24-well plates. The culture were incubated at 37° C. in a 5% carbon dioxide gas incubator. On the next day, 100 μl of the 10-fold serial dilution of each compound solution was added to each well and, 2 hours later, 0.5 μg/ml of heregulin was added to it. After 5 minutes the extract solution was added to it to terminate the reaction, and the protein fraction was extracted. The protein was fractionated by the protein electrophoresis. The protein in the electrophoretic gel was transferred to a nylon filter. The filter was allowed to react with the phosphorylated tyrosine-specific antibody. The reaction product was fluorescence-labeled to expose a photofilm. The intensity of the exposure on the photofilm was quantitated by an image-analyzing apparatus. The proportion of the phosphorylation of HER2 tyrosine in the cells added with a compound solution of each concentration was calculated designating the phosphorylation of HER2 tyrosine in the heregulin-added cells as 100%.

IC50 (MDA-MB-453): 250 nM
activity at 0.4 µM (HER2; MCF7, 0.4 μM): 67%
activity at 1.6 µM (HER2; MCF7, 1.6 μM): 41%
activity at 6.3 µM (HER2; MCF7, 6.3 μM): 32%
activity at 25 µM (HER2; MCF7, 25 μM): 30%
SMILES: C(=C\c1nc(COc2ccc(CCCn3ccnc3)cc2)co1)/c1ccccc1 [Compound 8, 4-[4-[3-(1-imidazolyl)propyl]phenoxymethyl]-2-[(E)-2-phenylethenyl]oxazole]
Tumor growth rate (%) ([1]; 60 mg/kg/day, 30 mg/kg twice daily for 10 days): 71%
Tumor growth rate (%) ([1]; 90 mg/kg/day, 2 cycles of 45 mg/kg twice daily 3 days and 3 days off): 46%
Inhibition of implanted tumor growth ([1]; MDA-MB-453, athymic nude mice): inhibited dose-dependently the growth of human breast cancer
Body weight change ([2]; Test Example 8, MDA-MB-453-bearing mice): no decrease
Body weight change ([2]; Test Example 11, LNCaP-bearing mice, oral 30 mg/kg twice daily 21 days): no decrease
